± gives the expanded uncertainty stated by the source.

The nature of the data set: molar enthalpy of vaporization or sublimation. Conditions: 298.15 K; Crystal; Calvet.
On to `Oc1ccc(I)cc1` [4-iodophenol], for which the molar enthalpy was determined as 21.2 ± 0.717 kcal/mol.
Consider `Oc1ccccc1I` [2-iodophenol], for which the molar enthalpy is 18.2 ± 0.669 kcal/mol.
The figure for `Oc1cccc(I)c1` [m-iodophenol] is 21.1 ± 0.765 kcal/mol.
